PubChem BioAssay (NCI)
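Compound exposure: 48 hours, 5 concentrations, 96-well plates. TGI: concentration producing complete growth inhibition.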

Legend:
Assay in all cases: DTP human tumour cell line panel, 48 h
SF-268 CNS = tested on: SF-268 CNS
SK-OV-3 ovarian = tested on: SK-OV-3 ovarian
HCT-116 colon = tested on: HCT-116 colon
HCC-2998 colon = tested on: HCC-2998 colon
COLO 205 colon = tested on: COLO 205 colon
ACHN renal = tested on: ACHN renal
HT29 colon = tested on: HT29 colon
SK-MEL-28 melanoma = tested on: SK-MEL-28 melanoma
A549 NSCLC = tested on: A549 NSCLC
UACC-257 melanoma = tested on: UACC-257 melanoma
UACC-62 melanoma = tested on: UACC-62 melanoma
SF-539 CNS = tested on: SF-539 CNS
DU-145 prostate = tested on: DU-145 prostate
SK-MEL-2 melanoma = tested on: SK-MEL-2 melanoma
MALME-3M melanoma = tested on: MALME-3M melanoma
CAKI-1 renal = tested on: CAKI-1 renal
LOX IMVI melanoma = tested on: LOX IMVI melanoma
HCT-15 colon = tested on: HCT-15 colon
OVCAR-8 ovarian = tested on: OVCAR-8 ovarian
NCI-H522 lung = tested on: NCI-H522 lung
SN12C renal = tested on: SN12C renal
OVCAR-3 ovarian = tested on: OVCAR-3 ovarian
SR leukemia = tested on: SR leukemia
MOLT-4 leukemia = tested on: MOLT-4 leukemia
MDA-MB-231 breast = tested on: MDA-MB-231 breast
IGROV1 ovarian = tested on: IGROV1 ovarian
BT-549 breast = tested on: BT-549 breast
CCRF-CEM leukemia = tested on: CCRF-CEM leukemia
K-562 leukemia = tested on: K-562 leukemia
UO-31 renal = tested on: UO-31 renal
SNB-19 CNS = tested on: SNB-19 CNS
EKVX NSCLC = tested on: EKVX NSCLC
HOP-92 NSCLC = tested on: HOP-92 NSCLC
MDA-MB-435 = tested on: MDA-MB-435
SW-620 colon = tested on: SW-620 colon
PC-3 prostate = tested on: PC-3 prostate
NCI-H23 lung = tested on: NCI-H23 lung
SK-MEL-5 melanoma = tested on: SK-MEL-5 melanoma
NCI/ADR-RES ovarian = tested on: NCI/ADR-RES ovarian
A498 renal = tested on: A498 renal
HS 578T breast = tested on: HS 578T breast
SF-295 CNS = tested on: SF-295 CNS
NCI-H226 lung = tested on: NCI-H226 lung
HL-60(TB) leukemia = tested on: HL-60(TB) leukemia
KM12 colon = tested on: KM12 colon
MCF7 breast = tested on: MCF7 breast
HOP-62 NSCLC = tested on: HOP-62 NSCLC
NCI-H460 lung = tested on: NCI-H460 lung
M14 melanoma = tested on: M14 melanoma
RPMI-8226 leukemia = tested on: RPMI-8226 leukemia
786-0 renal = tested on: 786-0 renal
U251 CNS = tested on: U251 CNS
OVCAR-4 ovarian = tested on: OVCAR-4 ovarian
MDA-N = tested on: MDA-N
TK-10 renal = tested on: TK-10 renal

Measured: TGI

COc1cccc(NC(=O)CC(=O)Nc2cccc(OC)c2)c1
> 100 µM: all assays above
